Measurements from ChEMBL document CHEMBL5712093, “The histone methyltransferase SMYD2 is a novel therapeutic target for the induction of apoptosis in ovarian clear cell carcinoma cells” (Oncol Lett, 2020).

What was measured:
Assay type in all cases: functional, cell-based
TOV21G = assay: Anti-proliferative activity against human TOV-21G cells assessed as cell viability incubated for 24 hrs by CCK-8 assay
[1] = Anti-proliferative activity against human OVMANA cells assessed as cell viability incubated for 24 hrs by CCK-8 assay
[2] = Anti-proliferative activity against human OVTOKO cells assessed as cell viability incubated for 24 hrs by CCK-8 assay

SMILES: Cc1cn(CCN2CCN(c3ccccc3-c3cc(C#N)cc(C(=O)NCCCN4CCCC4)c3)CC2)c2ccccc12
- IC50 (TOV21G): 1.2 µM
- IC50 [1]: 1.17 µM
- IC50 [2]: 0.95 µM
